What all share (format): cell-based
One assay concerns 1E7 cells. As to the kind of experiment: Ring-SAIM glycocalyx material thickness, wild-type 1E7 cells. As to conditions: wild-type 1E7 cells, 1,000 ng/mL doxycycline induction; TD139 at 10 μm. Here is the method: Silicon wafers with ˜1900 nm thermal oxide (Addison Engineering) were diced into 7 mm by 7 mm chips, and the oxide layer thickness for each chip was measured with a FilMetrics F50-EXR. Prior to use, the chips were then cleaned with 1:1 methanol and hydrochloric acid for 15 minutes, followed by 1 minutes in a plasma cleaner (Harrick Plasma, PDC-001). The chips were incubated with 4% (v/v) (3-mercaptopropyl)trimethoxysilane in absolute ethanol for 30 minutes at room temperature. After washing with absolute ethanol, the chips were subsequently incubated with 4 mM 4-maleimidobutyric acid N-hydroxysuccinimide ester in absolute ethanol for 30 minutes and rinsed with PBS. 50 μg/mL human plasma fibronectin in PBS was incubated with the functionalized chips overnight at 4° C. for conjugation. Cells were seeded onto the chips at 2×10^4 cm^−2 in full culture medium with varying doxycycline concentrations and incubated for 24 hours. Cells expressing different length of Muc1 were labelled with GFP nanobody conjugated to Alexa Fluor 647 in MCF10A growth media for 10 minutes at 37° C. Cells were labelled with MemGlow dye or CellBrite Steady 550 in serum-free, phenol red-free DMEM/F12 for 10 minutes at 37° C. Sample were then rinsed 3× in PBS, inverted into a 35 mm glass-bottom imaging dish containing imaging buffer (MemGlow dye or CellBrite dye: serum-free, phenol red-free DMEM/F12, Alexa Fluor 647-conjugated GFP nanobody: phenol red-free DMEM/F12 supplemented with 5% horse serum, 20 ng/mL EGF, […], 500 ng/mL hydrocortisone, 100 ng/mL cholera toxin and 1× penicillin/streptomycin) and imaged at 37° C. […]
(§1) Scanning angle interference microscopy (SAIM) was conducted on a custom circle-scanning microscope.^40 The core of the setup was an inverted fluorescence microscope (Ti-E, Nikon). […] Fluorescence emission was collected with a quad band filter cube and single band filters (TRF89901-EMv2, Chroma) mounted in a motorized filter wheel (Sutter). […]

The next assay has as its system cell surface Muc1. As to the kind of experiment: Fluorescence recovery after photobleaching (FRAP) of Muc1-GFP. Conditions: 1E7 GCNT1 OE with 10 μM recombinant human galectin-1. How it is done:
FRAP experiments were performed by using a Zeiss i880 confocal microscope with 63×N.A. 1.4 Oil immersion lens. Five pre-bleached images were firstly taken and photobleaching was performed with 488 nm laser for about 10 seconds to bleach a target area of 2.55 μm×2.55 μm. 1E7 clone (n=11) and 1E7 GCNT1 overexpression (n=10) were used to measure mobile fraction of Muc1-GFP. 10 μM recombinant human galectin-1 was incubated with 1E7 GCNT1 cells for 10 minutes at 37° C. (n=9). Intensity profiles were corrected by normalizing to the time-course decay of GFP signal in non-bleached area by using MATLAB code from Advanced Imaging Center (https://www.mathworks.com/matlabcentral/fileexchange/47327-frap-zip)

The subject of assay [1] is 1E7 cells overexpressing GCNT1. As to the kind of experiment: Ring-SAIM glycocalyx material thickness, GCNT1 overexpressing 1E7 cells. As to conditions: 1E7 cells overexpressing GCNT1, treatment with recombinant galectin. How it is done:
Silicon wafers with ˜1900 nm thermal oxide (Addison Engineering) were diced into 7 mm by 7 mm chips, and the oxide layer thickness for each chip was measured with a FilMetrics F50-EXR. Prior to use, the chips were then cleaned with 1:1 methanol and hydrochloric acid for 15 minutes, followed by 1 minutes in a plasma cleaner (Harrick Plasma, PDC-001). The chips were incubated with 4% (v/v) (3-mercaptopropyl)trimethoxysilane in absolute ethanol for 30 minutes at room temperature. After washing with absolute ethanol, the chips were subsequently incubated with 4 mM 4-maleimidobutyric acid N-hydroxysuccinimide ester in absolute ethanol for 30 minutes and rinsed with PBS. 50 μg/mL human plasma fibronectin in PBS was incubated with the functionalized chips overnight at 4° C. for conjugation. Cells were seeded onto the chips at 2×10^4 cm^−2 in full culture medium with varying doxycycline concentrations and incubated for 24 hours. […]
as §1

With `OC[C@H]1O[C@@H](S[C@@H]2O[C@H](CO)[C@H](O)[C@H](n3cc(-c4cccc(F)c4)nn3)[C@H]2O)[C@H](O)[C@@H](n2cc(-c3cccc(F)c3)nn2)[C@H]1O` [TD139], the “change of the material thickness of the glycocalyx” value (shortened to “change”) in the assay on 1E7 cells was “did not significantly change”.
On to “recombinant galectin-1: recombinant human galectin-1 (LGALS1) expressed in E. coli”, for which the “effect on mobility and mobile fraction of cell surface Muc1” value with cell surface Muc1 is “does not significantly affect”. The “decrease of glycocalyx thickness compared to untreated cells” value in assay [1] is listed as 19.4 nm. Moreover, the “change” value with 1E7 cells is on record as “did not significantly change”.
On to “recombinant galectin-3: recombinant human galectin-3 (LGALS3) expressed in E. coli”, for which, in assay [1], the “decrease of glycocalyx thickness compared to untreated cells” value is 9.5 nm. In the assay with 1E7 cells, the “change” value is on record as “did not significantly change”.

The values are drawn from patent US20250152627A1, “COMPOSITIONS AND METHODS FOR ENHANCING IMMUNE CELL FUNCTION USING MODIFIED CELLS WITH GLYCOCALYX EDITING ENZYMES” (Cornell University, priority 2021, published 2025).
